In patent US20190255022A1, “WOUND-HEALING AGENT” (NIPPON CHEMIPHAR CO., LTD., priority 2016, published 2019):
Marks after values point to notes of the source that are not given here.

Test system: wound in diabetes mouse (db/db mouse) model
Test: Effect of compound A on wound in diabetes mouse (db/db mouse) model
Assay type: in vivo
Details: for wound area ratio: 0.05 mL once a day, mean±standard error, n=8
Procedure: The compound A was weighed in the required amount, and polyethylene glycol 400 (PEG400) was added to the compound to prepare liquids having final concentrations of the compound of 0.001, 0.01, and 0.1 w/v %. In order to prepare ointments having final concentrations of the compound of 0.0005, 0.005, and 0.05 w/w %, PEG4000 melted by warming at 65° C. was added to the liquids, and the liquids were stirred until they solidified at room temperature to prepare ointments having concentrations of the compound of 0.0005, 0.005, and 0.05 w/w %.
Diabetes mice (db/db mice) were anesthetized with isoflurane, and a 1.5-cm square of skin including the back median line as the center axis of each mouse was removed with ophthalmic scissors. A polyurethane film was stuck so as to cover the skin-lacking wound part and surrounding parts to prepare the wound.
The administration was performed once a day at a volume of 0.05 mL. As for the administration method, the administration was performed with a disposable polypropylene injection syringe attached to a 23G needle by inserting the needle into a gap between the wound and the polyurethane film covering the wound part. On the day when the wound was produced and the days when the wound area was measured, the compound was administered to the wound part by using a disposable polypropylene injection syringe attached to a 23G needle before sticking the polyurethane film.
On days 14 to 20 of the administration (the day on which the administration was started is day 1 of the administration), the administration was performed by peeling off the polyurethane film under isoflurane anesthesia, cleaning the wound with absorbent cotton containing physiological saline, administering the ointment with a disposable polypropylene injection syringe, and then the polyurethane film was stuck on again.
On days 1, 4, 8, 12, 16, and 21 of the administration, the wound part was traced. That is, after the polyurethane film was removed (in the case of the day 1 of the administration, before the administration and sticking of the film), a plastic sheet was placed on the wound part, the contour of the wound part was traced on the plastic sheet (tracing was performed by using a felt pen so that the external periphery of the wound part would coincide with the internal periphery of the line drawn with the felt pen), and a copy of the sheet on which tracing was performed was used as the source of raw data. The area of the inside of the traced line (mm^2) was measured once using an area-line meter (PLANIX EX, Tamaya Technics Inc.) on the copy of the sheet on which tracing was performed. The results are expressed as ratio of change (%) calculated from the wound area (mm^2) of each measurement day, and the wound area (mm^2) of the day 1 of the wound creation (before administration).
Significant difference test was performed by using a commercial statistical analysis program (SAS System, SAS Institute Japan, Inc.). Statistical significance levels lower than 5% were considered to be significant, and the results are indicated as those of the level lower than 5% (*; p<0.05) and those of the level lower than 1% (**; p<0.01).
As for the test method, the multiple comparison of Dunnett's method was used for the comparison between the vehicle-administered group and compound A-administered groups.

SMILES: Cc1cc2c(CCc3sc(-c4ccc(C(F)(F)F)cc4)nc3C(C)C)noc2cc1OCC(=O)O [compound A, [3-[2-[4-isopropyl-2-(4-trifluoromethyl)phenyl-5-thiazolyl]ethyl]-5-methyl-1,2-benzisoxazol-6-yl]oxyacetic acid]
- wound area ratio (0.0005% compound A ointment, day 1 of administration): 100.0 ± 0.0%
- wound area ratio (0.0005% compound A ointment, day 4 of administration): 96.9 ± 1.7%
- wound area ratio (0.0005% compound A ointment, day 8 of administration): 95.2 ± 2.4%
- wound area ratio (0.0005% compound A ointment, day 12 of administration): 82.9 ± 2.7%
- wound area ratio (0.0005% compound A ointment, day 16 of administration): 73.4 ± 2.7%
- wound area ratio (0.0005% compound A ointment, day 21 of administration): 67.6 ± 3.8%
- wound area ratio (0.005% compound A ointment, day 1 of administration): 100.0 ± 0.0%
- wound area ratio (0.005% compound A ointment, day 4 of administration): 97.2 ± 2.4%
- wound area ratio (0.005% compound A ointment, day 8 of administration): 95.0 ± 2.2%
- wound area ratio (0.005% compound A ointment, day 12 of administration): 84.1 ± 1.6%
- wound area ratio (0.005% compound A ointment, day 16 of administration): 72.1 ± 1.7%
- wound area ratio (0.005% compound A ointment, day 21 of administration): 69.1 ± 3.0%
- wound area ratio (0.05% compound A ointment, day 1 of administration): 100.0 ± 0.0%
- wound area ratio (0.05% compound A ointment, day 4 of administration): 96.0 ± 2.1%
- wound area ratio (0.05% compound A ointment, day 8 of administration): 90.3 ± 2.6* %
- wound area ratio (0.05% compound A ointment, day 12 of administration): 78.6 ± 1.6** %
- wound area ratio (0.05% compound A ointment, day 16 of administration): 69.2 ± 2.1%
- wound area ratio (0.05% compound A ointment, day 21 of administration): 65.5 ± 2.1%
- wound area compared with the vehicle-administered group (0.05% compound A-administered group, day 8 and day 12 of the administration): significantly smaller
